Experimental data taken from patent US20140213538A1, “LYSOPHOSPHATIDIC ACID RECEPTOR ANTAGONISTS” (InterMune, Inc., priority 2013, published 2014).

Target: T1, LPA/S1P GPCR of interest (Homo sapiens, UniProt Q92633)
T1 construct: host or cells: CHO
Assay: Beta-Arrestin based assay (PathHunter)
Format: cell-based
Experimental: CMV promoter based DNA constructs expressing a fusion of the LPA/S1P GPCR of interest and ProLink™ tag were used to transfect EA Parental™ CHO cells (DiscoverX, Fremont, Calif.) using a FuGENE® transfection kit (Roche). Beta-Arrestin based assays were conducted 24-48 hrs post transfection using PathHunter® assay kits (DiscoverX, Fremont, Calif.). Agonist and antagonist assays were performed in quadruplicate in white 384 well plates. End point luminescence data were plotted and fit to a 4 parameter logistic function to obtain IC50 values. For antagonist assays, an IC80 concentration of agonist (LPA) equal to 0.5 micromolar was used.

T1 sequence (Q92633 whole entry): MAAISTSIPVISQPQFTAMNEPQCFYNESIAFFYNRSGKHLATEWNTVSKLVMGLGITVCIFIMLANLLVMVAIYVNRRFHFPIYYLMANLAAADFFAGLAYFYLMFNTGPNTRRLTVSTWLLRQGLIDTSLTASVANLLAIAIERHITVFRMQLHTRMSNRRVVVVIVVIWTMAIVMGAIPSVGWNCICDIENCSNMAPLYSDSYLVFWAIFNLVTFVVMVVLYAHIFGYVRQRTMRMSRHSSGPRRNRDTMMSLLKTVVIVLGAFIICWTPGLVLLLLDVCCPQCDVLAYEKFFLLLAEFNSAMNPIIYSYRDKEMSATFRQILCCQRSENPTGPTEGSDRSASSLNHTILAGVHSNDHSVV

| SMILES | EC50 [nM] |
| --- | --- |
| C[C@@H](OC(=O)Nc1c(-c2cc3sc(-c4ccc(C5(C(=O)O)CC5)c5ccccc45)cc3s2)cnn1C)c1ccccc1 [IT320] | > 500 |
| C[C@@H](OC(=O)Nc1c(-c2cc3sc(-c4cc(F)c(CC(=O)O)cc4F)cc3s2)nnn1C)c1ccccc1 [IT328] | 50 to 500 |
| C[C@@H](OC(=O)Nc1c(-c2ccc(C#CC(=O)NCCC(=O)O)cc2)cnn1C)c1ccccc1 [IT432] | > 500 |
| C[C@@H](OC(=O)Nc1c(-c2cc3sc(-c4ccc(CC(=O)O)cc4C(F)(F)F)cc3s2)cnn1C)c1ccccc1 [IT362] | > 500 |
| Cc1cc(-c2cc3sc(-c4nnn(C)c4NC(=O)O[C@H](C)c4ccccc4)cc3s2)ccc1C1(C(=O)O)CC1 [IT324] | 50 to 500 |
| C[C@@H](OC(=O)Nc1c(-c2cc3sc(-c4ccc(C5(C(=O)O)CC5)c(C(F)(F)F)c4)cc3s2)cnn1C)c1ccccc1 [IT379] | 50 to 500 |
| Cc1noc(-c2ccc(-c3ccc(OC(C)C(=O)O)cc3)cc2)c1NC(=O)O[C@H](C)c1ccccc1 (single isomer, unassigned) [IT238] | 50 to 500 |
| Cc1cc(C2(C(=O)O)CC2)c(F)cc1-c1cc2sc(-c3cnn(C)c3NC(=O)O[C@H](C)c3ccccc3)cc2s1 [IT342] | < 50 |
| C[C@@H](OC(=O)Nc1c(-c2cc3sc(-c4ccc(CC(=O)O)c(S(C)(=O)=O)c4)cc3s2)nnn1C)c1ccccc1 [IT443] | > 500 |
| Cc1cc(C2(C(=O)O)CC2)ccc1-c1cc2sc(-c3snc(C)c3NC(=O)O[C@H](C)c3ccccc3)cc2s1 [IT361] | < 50 |
| Cc1cc(-c2cc3sc(-c4snc(C)c4NC(=O)O[C@H](C)c4ccccc4)cc3s2)c(F)cc1C1(C(=O)O)CC1 [IT338] | 50 to 500 |
| COc1cc(-c2cc3sc(-c4snc(C)c4NC(=O)O[C@H](C)c4ccccc4)cc3s2)ccc1CC(=O)O [IT219] | > 500 |
| C[C@@H](OC(=O)Nc1scnc1C#Cc1cc2sc(C3(C(=O)O)CC3)cc2s1)c1ccccc1 [IT116] | > 500 |
| C[C@@H](OC(=O)Nc1c(-c2cc3sc(-c4ccc(-c5nnc(C6(C(=O)O)CC6)s5)cc4)cc3s2)cnn1C)c1ccccc1 [IT287] | > 500 |
| Cc1cc(-c2cc3sc(-c4snc(C)c4NC(=O)O[C@H](C)c4ccccc4)cc3s2)c(F)cc1CC(=O)O [IT241] | > 500 |
| COc1cc(C2(C(=O)O)CC2)c(OC)cc1-c1cc2sc(-c3cnn(C)c3NC(=O)O[C@H](C)c3ccccc3)cc2s1 [IT414] | > 500 |
| C[C@@H](OC(=O)Nc1c(-c2ccc(-c3ccc(OC(C)(C)C(=O)O)cc3)cc2)oc2ccccc12)c1ccccc1 [IT508] | 50 to 500 |
| Cc1nsc(-c2cc3sc(-c4ccc(CC(=O)O)cc4OC(F)(F)F)cc3s2)c1NC(=O)O[C@H](C)c1ccccc1 [IT384] | > 500 |
| C[C@@H](OC(=O)Nc1c(-c2cc3sc(-c4ccc(-c5nnc(C6(C(=O)O)CC6)o5)cc4)cc3s2)cnn1C)c1ccccc1 [IT217] | > 500 |
| C[C@@H](OC(=O)Nc1c(-c2ccc(-c3nnc(CC(=O)O)o3)cc2)nnn1C)c1ccccc1 [IT143] | > 500 |
| C[C@@H](OC(=O)Nc1c(-c2ccc(-c3cnc(C4(C(=O)O)CC4)s3)cc2)nnn1C)c1ccccc1 [IT278] | 50 to 500 |
| Cc1nsc(-c2ccc(-c3ccc(C(=O)O)s3)cc2)c1NC(=O)O[C@H](C)c1ccccc1 [IT144] | > 500 |
| C[C@@H](OC(=O)Nc1c(-c2cc3sc(-c4ccc(CC(=O)O)c(C(F)(F)F)c4)cc3s2)nnn1C)c1ccccc1 [IT223] | 50 to 500 |
| C[C@@H](OC(=O)Nc1c(-c2cc3sc(-c4ccc(C5(C(=O)O)CC5)c(S(C)(=O)=O)c4)cc3s2)nnn1C)c1ccccc1 [IT442] | > 500 |
| COc1cc(C2(C(=O)O)CC2)c(OC)cc1-c1cc2sc(-c3snc(C)c3NC(=O)O[C@H](C)c3ccccc3)cc2s1 [IT413] | > 500 |

| SMILES | EC50 [nM] |
| --- | --- |
| Cc1nsc(-c2cc3sc(-c4cc(F)c(C5(C(=O)O)CC5)cc4F)cc3s2)c1NC(=O)O[C@H](C)c1ccccc1 [IT346] | < 50 |
| C[C@H](NC(=O)C#Cc1ccc(-c2cnn(C)c2NC(=O)O[C@H](C)c2ccccc2)cc1)C(=O)O [IT400] | > 500 |
| Cc1nsc(-c2cc3sc(-c4cc(F)c(CC(=O)O)cc4F)cc3s2)c1NC(=O)O[C@H](C)c1ccccc1 [IT326] | 50 to 500 |
| CC(C)[C@H](NC(=O)C#Cc1ccc(-c2cnn(C)c2NC(=O)O[C@H](C)c2ccccc2)cc1)C(=O)O [IT404] | > 500 |
| C[C@@H](OC(=O)Nc1c(-c2cc3sc(-c4ccc(CC(=O)O)c(S(C)(=O)=O)c4)cc3s2)cnn1C)c1ccccc1 [IT445] | > 500 |
| COc1cc(-c2cc3sc(-c4snc(C)c4NC(=O)O[C@H](C)c4ccccc4)cc3s2)cnc1C1(C(=O)O)CC1 [IT359] | 50 to 500 |
| C[C@@H](OC(=O)Nc1c(-c2ccc(-c3ncc(C4(C(=O)O)CC4)s3)cc2)nnn1C)c1ccccc1 [IT239] | > 500 |
| COc1cc(C2(C(=O)O)CC2)ccc1-c1cc2sc(-c3nnn(C)c3NC(=O)O[C@H](C)c3ccccc3)cc2s1 [IT357] | 50 to 500 |
| C[C@@H](OC(=O)Nc1c(-c2cc3sc(-c4cc(F)c(Oc5ncccc5C(=O)O)c(F)c4)cc3s2)cnn1C)c1ccccc1 [IT470] | < 50 |
| Cc1nsc(-c2cc3sc(-c4ccc5scc(C6(C(=O)O)CC6)c5c4)cc3s2)c1NC(=O)O[C@H](C)c1ccccc1 [IT373] | > 500 |
| Cc1nsc(-c2cc3sc(-c4ccc(CC(=O)O)c5ccccc45)cc3s2)c1NC(=O)O[C@H](C)c1ccccc1 [IT317] | > 500 |
| C[C@@H](OC(=O)Nc1c(-c2cc3sc(-c4ccc5scc(C6(C(=O)O)CC6)c5c4)cc3s2)nnn1C)c1ccccc1 [IT372] | > 500 |
| COc1cc(-c2cc3sc(-c4cnn(C)c4NC(=O)O[C@H](C)c4ccccc4)cc3s2)ccc1CC(=O)O [IT221] | 50 to 500 |
| C[C@@H](OC(=O)Nc1c(-c2cc3sc(-c4ccc5c(CC(=O)O)c[nH]c5c4)cc3s2)nnn1C)c1ccccc1 [IT378] | > 500 |
| C[C@@H](OC(=O)Nc1c(-c2cc3sc(-c4ccc(C5(C(=O)O)CC5)s4)cc3s2)nnn1C)c1ccccc1 [IT273] | 50 to 500 |
| Cc1noc(-c2ccc(-c3ccc(Oc4ccc(C(=O)O)o4)cc3)cc2)c1NC(=O)O[C@H](C)c1ccccc1 [IT388] | 50 to 500 |
| Cc1nsc(-c2cc3sc(-c4cc(Cl)c(C5(C(=O)O)CC5)cc4F)cc3s2)c1NC(=O)O[C@H](C)c1ccccc1 [IT286] | 50 to 500 |
| Cc1nsc(-c2cc3sc(-c4ccc(C5(C(=O)O)CC5)cc4C(F)(F)F)cc3s2)c1NC(=O)O[C@H](C)c1ccccc1 [IT248] | > 500 |
| Cc1nsc(-c2cc3sc(-c4ccc5scc(CC(=O)O)c5c4)cc3s2)c1NC(=O)O[C@H](C)c1ccccc1 [IT354] | > 500 |
| Cc1noc(-c2ccc(-c3ccc(Oc4ncoc4C(=O)O)cc3)cc2)c1NC(=O)O[C@H](C)c1ccccc1 [IT419] | 50 to 500 |
| Cc1cc(C2(C(=O)O)CC2)c(F)cc1-c1cc2sc(-c3snc(C)c3NC(=O)O[C@H](C)c3ccccc3)cc2s1 [IT343] | < 50 |
| Cc1cc(-c2cc3sc(-c4cnn(C)c4NC(=O)O[C@H](C)c4ccccc4)cc3s2)ccc1C1(C(=O)O)CC1 [IT323] | 50 to 500 |
| C[C@@H](OC(=O)Nc1c(-c2cc3sc(-c4ccc(C5(C(=O)O)CC5)cc4OC(F)(F)F)cc3s2)nnn1C)c1ccccc1 [IT386] | 50 to 500 |
| COc1cc(-c2cc3sc(-c4cnn(C)c4NC(=O)O[C@H](C)c4ccccc4)cc3s2)ccc1C1(C(=O)O)CC1 [IT329] | 50 to 500 |
| Cc1cc(-c2cc3sc(-c4snc(C)c4NC(=O)O[C@H](C)c4ccccc4)cc3s2)ccc1C1(C(=O)O)CC1 [IT325] | 50 to 500 |
